Measurements taken from patent US20140219986A1, “DOSING REGIMENS FOR THE TREATMENT OF FABRY DISEASE” (AMICUS THERAPEUTICS ,INC., priority 2011, published 2014).
Several values for one entry are separate records, joined by “and”; a condition that tells them apart may be missing. Identical values can stand only once. Counter-ions that a name gives are not always drawn. Like-named read-outs stand apart in the source and are kept apart here. One block for each compound: values may come before it.

How the values were obtained:
α-Gal A [1] = target: T1, α-Gal A (Homo sapiens, UniProt P06280); assay: Phase 2 co-administration study: Western blot of plasma α-Gal A protein; assay type: in vivo; conditions: 5 out of 7 subjects
T1 construct: purchased Genzyme Corporation (Fabrazyme®)
T1 sequence (P06280 32-429): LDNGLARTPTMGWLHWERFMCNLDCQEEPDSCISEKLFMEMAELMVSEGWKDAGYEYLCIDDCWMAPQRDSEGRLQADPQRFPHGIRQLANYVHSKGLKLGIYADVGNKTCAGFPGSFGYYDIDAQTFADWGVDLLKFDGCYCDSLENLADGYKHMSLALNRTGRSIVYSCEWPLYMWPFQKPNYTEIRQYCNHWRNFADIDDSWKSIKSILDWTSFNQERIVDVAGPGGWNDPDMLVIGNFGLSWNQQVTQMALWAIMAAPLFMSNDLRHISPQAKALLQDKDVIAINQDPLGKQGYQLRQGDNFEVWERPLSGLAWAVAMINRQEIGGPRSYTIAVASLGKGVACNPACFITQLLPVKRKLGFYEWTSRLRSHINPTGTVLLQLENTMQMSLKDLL
Experimental: Migalastat HCl and rhα-Gal A Pharmacokinetics. Concentrations of migalastat HCl in blood samples will be measured in plasma using a validated LC-MS/MS assay. α-Gal A levels in plasma will be determined by a validated assay measuring enzyme activity using 4-MUG, with and without Con A. α-Gal A protein levels will be measured by Western blotting using anti-human Gal A antibody.
Western blot analysis of α-Gal A protein were performed on plasma samples using anti-human α-Gal A antibody. An rhα-Gal A (agalsidase) standard curve was run to calculate the appropriate concentration of α-Gal protein in each sample.

rhα-Gal A [2] = target: T2, rhα-Gal A (Homo sapiens, UniProt P06280); assay: In vitro stabilization of rhα-Gal A at neutral pH (thermal denaturation and activity); assay type: biochemical
T2 sequence (P06280 32-429): T1 sequence (P06280 32-429)
From the text: Migalastat hydrochloride stabilizes wild-type α-Gal A in vitro and as well as in vivo.

rhα-Gal A [3] = target: T2, rhα-Gal A; assay: Oral migalastat hydrochloride with rhα-Gal A injection in the GLA deficient mouse, tissue α-Gal A and GL-3; assay type: in vivo; conditions: 30, 100 or 300 mg/kg oral 30 min prior to and 2 hours after rhα-Gal A, vs rhα-Gal A alone
[4] = Phase 2 co-administration study: safety; assay type: in vivo, human
From the text: Safety Parameters. Safety parameters will be assessed by review of changes in physical exam findings, vital signs, ECG changes over time, clinical labs and adverse events.
The safety parameters included adverse events (AEs), vital signs, clinical laboratory tests (hematology, serum chemistry, and urinalysis), electrocardiograms (ECGs), physical examinations, and use of concomitant medications.

α-Gal A [5] = target: T1, α-Gal A; assay: Phase 2 co-administration study: PBMC α-Gal A activity (4-MUG); assay type: in vivo; conditions: 150 mg migalastat HCl + 0.5 mg/kg agalsidase beta, N=5 (Example 3)
α-Gal A [6] = target: T1, α-Gal A; assay: Phase 2 co-administration study: skin α-Gal A activity (4-MUG); assay type: in vivo
Experimental: α-Gal A Enzyme Levels in Skin. α-Gal A enzyme levels will be examined in skin biopsy samples. Skin biopsies will be done using a “punch” device. One piece will be removed at each visit. α-Gal A levels in skin will be determined by a validated assay measuring enzyme activity using 4-MUG, with and without Con A. α-Gal A protein levels will be measured by Western blotting using anti-human Gal A antibody.
(§1) Methods. The study was conducted according to the methods described in Example 1. Specifically, this was an open-label, single dose, non-randomized, fixed-sequence, 2-stage study. Stage 1 comprised of 3 periods: • (1) agalsidase beta 0.5 mg/kg or 1.0 mg/kg (infusion for about 2 hours) or agalsidase alpha 0.2 mg/kg (infusion for about 40 min.) enzyme replacement montherapy (ERT); • (2) ERT+150 mg migalastat oral tablet (single dose) co-administration, migalastat administered 2 hrs. prior to ERT; and • (3) 150 mg migalastat monotherapy.
(§2) α-Gal A catalyzes the initial step in breakdown of substrate GL-3 in vivo. α-Gal A also acts on other substrates with the same α-bond such as the artificial low-molecular weight florescent substrate, 4-MUG. α-Gal A activity on 4-MUG was measured in vitro from plasma, skin, and PBMC samples following serial dilutions to dissociate migalastat.
(§3) 6 patients with plasma, skin, and PBMC α-galactosidase A activity from Stage 1, Periods 1 and 2, were evaluated. Four patients received 0.5 mg/kg agalsidase beta ERT and 2 patients received 1.0 mg/kg agalsidase beta ERT during Period 1, and co-administration of 150 mg migalastat 2 hours prior to initiation of the same dose of ERT during Period 2.
(§4) Serial blood samples were taken to 24 hours post dose for plasma α-Gal A activity and protein levels each period. Blood samples for α-Gal A activity in peripheral blood mononuclear cells (PBMCs) were taken at predose and on Days 1, 2, 7, and 14 of each period. Punch biopsies for skin α-Gal A activity were taken at predose Period 1 and on Days 2 and 7 during Periods 1 and 2. Plasma α-Gal A activity PK parameters include Cmax, Tmax, AUC0-t, AUC0-inf, and t1/2. Pharmacokinetic parameters are calculated using standard non-compartmental procedures (WINNONLIN version 5.0 or higher).
(§5) α-Gal A activity in plasma skin, and PBMC lysates were measured by a fluorescence enzyme assay using 4-methylumbelliferyl-α-D-galactopyranoside (4-MUG). α-Gal A activity on 4 MUG was measured in vitro following serial dilutions to dissociate migalastat.

α-Gal A [7] = target: T1, α-Gal A; assay: as above; assay type: in vivo; conditions: 150 mg migalastat HCl + 0.5 mg/kg agalsidase beta, N=5 (Example 3)
agalsidase alfa = target: T3, agalsidase alfa (Homo sapiens, UniProt P06280); assay: In vitro thermal denaturation assay of agalsidase alfa; assay type: binding
T3 construct: purchased Shire Human Genetic Therapies (Replagal®)
T3 sequence (P06280 32-429): T1 sequence (P06280 32-429)
Experimental: The effect of migalastat hydrochloride on the physical stability of agalsidase alfa was evaluated with an in vitro thermal denaturation assay.

α-Gal A [8] = target: T1, α-Gal A; assay: Phase 2 co-administration study: PBMC α-Gal A activity (4-MUG); assay type: in vivo; conditions: for individual patient increases in PBMC α-Gal A activity: 1 mg/kg
Experimental: WBC α-Gal A Levels. α-Gal A levels in WBCs will be determined in blood samples by a validated assay measuring enzyme activity using 4-MUG, with and without Con A. α-Gal A protein levels will be measured by Western blotting using anti-human Gal A antibody.
as §1, §2, §3, §4, §5

[9] = male GLA-deficient mice; 3 and 30 mg/kg three times a week for four weeks with Fabrazyme 1 mg/kg i.v. once a week
Experimental: A preliminary study in GLA deficient mice has been conducted evaluating the safety of co-administered migalastat hydrochloride and Fabrazyme®. Migalastat hydrochloride was administered three times a week for four weeks at doses of 3 and 30 mg/kg in combination with Fabrazyme® administered intravenously once a week at a dose of 1 mg/kg.

[10] = cited from earlier work
[11] = cited from earlier work; remark: listed apart in the source
[12] = cited from earlier work; remark: listed apart in the source
[13] = 150 mg migalastat + 1.0 mg/kg agalsidase beta, Day 2, N=2
[14] = 150 mg migalastat + 1.0 mg/kg agalsidase beta, Day 7, N=2

Compound: OC[C@H]1NC[C@H](O)[C@@H](O)[C@H]1O [migalastat hydrochloride, (2R,3S,4R,5S)-2-(hydroxymethyl)piperidine-3,4,5-triol]
- plasma α-Gal A protein, Period 2 (co-administration)/Period 1 (ERT alone) AUC ratio (α-Gal A [1]): No change
- stabilization of rhα-Gal A (rhα-Gal A [2]): significant time- and concentration-dependent increases in stabilization
- GL-3 levels in skin, heart, kidney, and plasma (rhα-Gal A [3]): dose-dependent reduction
- tissue α-Gal A levels (rhα-Gal A [3]): dose-dependent increase
- safety and tolerability ([4]; co-administration of 150 mg migalastat HCl with agalsidase beta): generally safe and well-tolerated
- adverse events (AEs) reported ([4]; seven subjects, to date, one serious (TIA, prior to dosing), all considered unrelated to study drug): 12
- mean increase in PBMC α-Gal A activity (α-Gal A [5]; Day 2): 2.4 fold
- mean increase in PBMC α-Gal A activity (α-Gal A [5]; Day 7): 1.9 fold
- mean increase in PBMC α-Gal A activity (α-Gal A [5]; Day 14): 2.1 fold
- individual patient increases in skin α-Gal A activity (α-Gal A [6]; 150 mg migalastat + 0.5 mg/kg agalsidase beta, Day 2 (Example 2), 0.5 mg/kg): 2.8 fold and 3.9 fold and 1.1 fold
- mean increase in skin α-Gal A activity (α-Gal A [6]; 150 mg migalastat + 0.5 mg/kg agalsidase beta, Day 2, N=3 (Example 2)): 2.6 fold
- change in skin α-Gal A activity from Period 1 (α-Gal A [6]; 150 mg migalastat + 0.5 mg/kg agalsidase beta, Day 7 (Example 2)): No change
- individual patient increases in skin α-Gal A activity (α-Gal A [6]; 150 mg migalastat + 1.0 mg/kg agalsidase beta, Day 2, 1 mg/kg): 1.6 fold and 2.1 fold
- mean increase in skin α-Gal A activity (α-Gal A [6]; [13]): 1.9 fold
- individual patient increases in skin α-Gal A activity (α-Gal A [6]; 150 mg migalastat + 1.0 mg/kg agalsidase beta, Day 7, 1 mg/kg): 1.7 fold and 1.2 fold
- mean increase in skin α-Gal A activity (α-Gal A [6]; [14]): 1.5 fold
- patients with increased skin α-Gal A activity following co-administration (α-Gal A [6]; 150 mg migalastat + 0.5 or 1.0 mg/kg agalsidase beta, Day 7): 3 of 5 and four
- mean increase in skin α-Gal A activity (α-Gal A [7]; Day 2): 2.6 fold
- mean increase in skin α-Gal A activity (α-Gal A [7]; Day 7): 1.4 fold
- melting temperature (Tm) of agalsidase alfa (agalsidase alfa; pH 5.2, 10 μM migalastat hydrochloride): 68 °C
- melting temperature (Tm) of agalsidase alfa (agalsidase alfa; pH 7.4, 10 μM migalastat hydrochloride): 59 °C
- individual patient increase range in PBMC α-Gal A activity (α-Gal A [8]; 150 mg migalastat + 0.5 mg/kg agalsidase beta, Day 2): 1.4-3.1 fold
- mean increase in PBMC α-Gal A activity (α-Gal A [8]; 150 mg migalastat + 0.5 mg/kg agalsidase beta, Day 2, N=4 (Example 2)): 2.3 fold
- individual patient increase range in PBMC α-Gal A activity (α-Gal A [8]; 150 mg migalastat + 0.5 mg/kg agalsidase beta, Day 7): 1.4-2.3 fold
- mean increase in PBMC α-Gal A activity (α-Gal A [8]; 150 mg migalastat + 0.5 mg/kg agalsidase beta, Day 7, N=4 (Example 2)): 2.0 fold
- individual patient increase range in PBMC α-Gal A activity (α-Gal A [8]; 150 mg migalastat + 0.5 mg/kg agalsidase beta, Day 14): 1.7-2.8 fold
- mean increase in PBMC α-Gal A activity (α-Gal A [8]; 150 mg migalastat + 0.5 mg/kg agalsidase beta, Day 14, N=4 (Example 2)): 2.2 fold
- individual patient increases in PBMC α-Gal A activity (α-Gal A [8]; 150 mg migalastat + 1.0 mg/kg agalsidase beta, Day 2): 1.1 fold and 2.5 fold
- mean increase in PBMC α-Gal A activity (α-Gal A [8]; [13]): 1.8 fold
- individual patient increases in PBMC α-Gal A activity (α-Gal A [8]; 150 mg migalastat + 1.0 mg/kg agalsidase beta, Day 7): 3.6 fold and 6.0 fold
- mean increase in PBMC α-Gal A activity (α-Gal A [8]; [14]): 4.8 fold
- individual patient increases in PBMC α-Gal A activity (α-Gal A [8]; 150 mg migalastat + 1.0 mg/kg agalsidase beta, Day 14): 1.7 fold and 5.4 fold
- mean increase in PBMC α-Gal A activity (α-Gal A [8]; 150 mg migalastat + 1.0 mg/kg agalsidase beta, Day 14, N=2): 3.5 fold
- survival, clinical condition, hematology and clinical chemistry parameters [9]: no direct drug-related changes

- patients with decreased skin α-Gal A activity relative to baseline (α-Gal A [6]; agalsidase beta alone, 0.5 mg/kg infusion, Day 2): 2
- PBMC α-Gal A activity relative to baseline (α-Gal A [8]; agalsidase beta alone, all patients, all time points): increased
Compound: agalsidase beta: recombinant α-Gal A enzyme replacement therapy (Fabrazyme®; Genzyme Corporation)
- maximal agalsidase concentrations and AUC values reduced, of baseline values ([10]; adult patients with the highest titers of IgG): up to 26%
- patients who developed IgG antibodies ([10]; adult patients): 79%
- patients who developed IgG antibodies ([10]; pediatric patients): 69%
- pharmacokinetics, dose linearity ([11]; AUC increasing and clearance decreasing disproportionally with dose): non-linear pharmacokinetics
- AUC increase ([11]; dose increased from 0.3 mg/kg to 1 mg/kg): approximately 6 fold
- AUC increase ([11]; dose increased from 1 mg/kg to 3 mg/kg): ~8 fold

Compound: agalsidase alfa: recombinant α-Gal A enzyme replacement therapy (Replagal®, Shire Human Genetic Therapies)
- melting temperature (Tm) of agalsidase alfa (agalsidase alfa; pH 5.2, enzyme alone): 58 °C
- melting temperature (Tm) of agalsidase alfa (agalsidase alfa; pH 7.4, enzyme alone): approximately 51 °C
- AUC versus dose ([12]; 0.1 to 0.4 mg/kg): linearly proportional to dose
- IgE antibodies ([12]; 10-week study): No IgE antibodies were detected
- patients who became IgG positive during the study ([12]; 10-week study): Two of 18
- Plasma GL-3 levels reduction ([12]; all dose groups, independent of dose and dosing frequency): approximately 50%
- mean half life ([12]; doses 0.1 to 0.4 mg/kg agalsidase alfa, ERT naïve adult male Fabry patients): 56 to 76 min
